# Experimental data as given in US20260137790A1, “MIXED VASOPRESSIN RECEPTOR AGONIST-ANTAGONIST FOR MODULATING MEAN ARTERIAL PRESSURE” (FERRING B.V., priority 2022, published 2026).
# Like-named read-outs stand apart in the source and are kept apart here. Starred links: 1 amine or outer side, 2 acyl side, 3 side chain; linkers in the order of their positions; H or OH if unused. Positions of bridges follow the written chain, without caps; N, C: chain ends. Non-standard residues stand in square brackets, D forms with d. Residues, ends and D or L forms follow the SMILES beside them. Groups on a side chain read outwards from the residue. Chains are numbered I, II in the order given. *: point of attachment. X1 = CC(=O)NCCCC[C@H](NC(=O)CC[C@H](N)C(N)=O)C(=O)*; isoGln = NC(=O)[C@H](CCC(=O)[*:2])N[*:1]; εLys = N[C@@H](CCCCN[*:1])C(=O)[*:2]; Dab = NCC[C@H](N)C(=O)O; PhAc = O=C(Cc1ccccc1)*
# Experiments:
# [1] = SC (bolus) injection of high/low buffer compositions in rats: bioavailability, M1 formation; assay type: in vivo, rat; conditions: for bioavailability: rat, in vivo, sc, bioavailability of Compound 1, rats
# [2] = in vivo
# Experimental: (§1) The trial comprised two treatment periods, treatment Period 1 and treatment Period 2 (see FIG. 1).
# (§2) The study was conducted in two periods where the treatment in Period 1 was administered as an intravenous infusion, and the treatment in Period 2 was administered as subcutaneous injections. The trial comprised 5 ascending dose panels, each dose panel comprising 8 healthy subjects (6 active, 2 placebo). A new cohort of subjects was used for each dose panel.
# (§3) If no safety concerns arose, as judged by the Investigator, the remaining subjects in that dose group were randomized and treated according to the randomization and protocol in a staggered dosing manner.
# (§4) Treatment period 2: After a resting period of 2-18 days each subject received a once daily subcutaneous dose for 5 days of the same treatment as in Period 1. The dose was selected to prevent the exposure to exceed the intravenous exposure. […] A SRC evaluated the safety and tolerability of the compound after the completion of all subjects in the dose group.
# (§5) The continuation of the same subjects from intravenous to subcutaneous administration was selected to get an as reliable as possible estimate of the bioavailability (F) in the small groups outlined.
# (§6) The intravenous dose to the first dose panel was the lowest dose giving a clear signal of pharmacological activity in the preceding trial. The administration was performed by using a piston-driven syringe auto-infusion pump. The administered volume was recorded for each subject.
# (§7) In Period 2, subjects received a once-daily subcutaneous injection for 5 days of the same treatment as in Period 1 at different locations on the abdomen (Table 5). The subcutaneous doses were selected based on data from a previous trial.
# [3] = Metabolite M1 formation in healthy rats after IV bolus and SC (bolus) injection; assay type: in vivo; conditions: rat
# Text: A similar study in healthy rats was used to evaluate the differences between metabolite formation of Compound 1 after IV bolus and SC (bolus) injection.
# [4] = human, in vivo; for AUC: M1 AUC; for Tmax: M1 tmax
# Experimental: as §1, §2, §3, §4, §5, §6, §7
# [5] = test system: adult male cynomolgus monkeys; assay: Telemetry MAP in healthy monkeys, Compound 1 versus terlipressin; assay type: in vivo, cynomolgus monkey; conditions: monkey
# Experimental: The in-life portion of the study was performed over multiple dosing sessions using six non-naive adult male cynomolgus monkeys. Animals were previously (3-4 weeks before study start) instrumented with indwelling pressure telemetry devices and trained to be restrained in chairs. Animals had access to food and drinking water ad libitum.
# Stock solutions were diluted in saline on the day of administration. Animals with indwelling pressure telemetry devices were trained to be restrained in chairs for 8-h periods.
# On the day of administration, animals were restrained, and telemetric measurements were collected continuously starting ≥2 h before administration. Baseline values of arterial pressure (diastolic and systolic), heart rate, and body temperature were obtained. […].
# The data reported herein were collected over 19 dosing sessions of four animals each, using a total of six monkeys. Animals were repeat dosed in a crossover design with at least one animal receiving vehicle for each round; the animal receiving vehicle was varied between rounds. A 48- to 72-h washout period was used between dosing sessions. Animals were observed by camera for ˜1 h before dosing (covering the baseline period) and up to 3 h after dosing.
# [6] = test system: methionine/choline-deficient (MCD) diet rats; assay: Methionine/choline-deficient (MCD) diet rat model, MAP and portal pressure; conditions: for Δ MAP, mean / Δ PP, mean: 100 μg/kg IA
compound,measurement,setting,value
CC[C@H](C)[C@@H]1NC(=O)[C@H](Cc2ccccc2)NC(=O)[C@@H](N)CSSC[C@@H](C(=O)N2CCC[C@H]2C(=O)N[C@@H](CCNC(=O)[C@@H](N)CCCCNC(=O)[C@H](CCCCNC(C)=O)NC(=O)CC[C@H](NC(=O)[C@H](CCCNC(=N)N)NC(=O)[C@@H]2CCCN2C(=O)[C@H](C)NC(=O)[C@H](CC(N)=O)NC(=O)[C@H](CCC(N)=O)NC(=O)[C@H](Cc2ccccc2)NC(=O)[C@@H](Cc2ccc(OC)cc2)NC(=O)Cc2ccccc2)C(N)=O)C(=O)NCC(N)=O)NC(=O)[C@H](CC(N)=O)NC(=O)[C@H](CCC(N)=O)NC1=O [Compound 1] (I: H-CFIQNCP[Dab]G-NH2 / II: PhAc-[dY](Me)FQNAPR[isoGln]K(Ac)[εLys]; disulfide I:1-I:6; amide I:8-II:C),bioavailability,[1]; buffer about 10 mM,~13%
same,bioavailability,[1]; buffer about 100 mM,~37%
CC[C@H](C)[C@@H]1NC(=O)[C@H](Cc2ccccc2)NC(=O)[C@@H](N)CSSC[C@@H](C(=O)N2CCC[C@H]2C(=O)N[C@@H](CCNC(=O)[C@@H](N)CCCCNC(=O)[C@H](CCCCNC(C)=O)NC(=O)CC[C@H](N)C(N)=O)C(=O)NCC(N)=O)NC(=O)[C@H](CC(N)=O)NC(=O)[C@H](CCC(N)=O)NC1=O [Compound M1] (H-CFIQNCP[Dab]([εLys-X1])G-NH2; disulfide 1-6),M1 time of Cmax,"[2]; human, iv",approx. 5 hours
same,"M1 AUC, geometric mean","[2]; human, sc, 0.1 mg",2.68 ng·h/mL
same,"M1 AUC, max","[2]; human, sc, 0.1 mg",3.10 ng·h/mL
same,"M1 AUC, mean","[2]; human, sc, 0.1 mg",2.70 ng·h/mL
same,"M1 AUC, min","[2]; human, sc, 0.1 mg",2.39; h*ng/mL
same,"M1 Cmax, geometric mean","[2]; human, sc, 0.1 mg",0.98 ng/mL
same,"M1 Cmax, max","[2]; human, sc, 0.1 mg",1.27 ng/mL
same,"M1 Cmax, mean","[2]; human, sc, 0.1 mg",1.01 ng/mL
same,"M1 Cmax, min","[2]; human, sc, 0.1 mg",0.74; ng/mL
same,"M1 t1/2, harmonic mean","[2]; human, sc, 0.1 mg",1.4 h
same,"M1 t1/2, max","[2]; human, sc, 0.1 mg",2.2 h
same,"M1 t1/2, mean","[2]; human, sc, 0.1 mg",1.6 h
same,"M1 t1/2, min","[2]; human, sc, 0.1 mg",0.8; h
same,"M1 tmax, min","[2]; human, sc, 0.1 mg",0.5; h
same,"M1 Cmax, geometric mean","[2]; human, sc, 0.3 mg",1.76 ng/mL
same,"M1 Cmax, max","[2]; human, sc, 0.3 mg",3.62 ng/mL
same,"M1 Cmax, mean","[2]; human, sc, 0.3 mg",2.24 ng/mL
same,"M1 Cmax, min","[2]; human, sc, 0.3 mg",0.86; ng/mL
same,"M1 t1/2, mean","[2]; human, sc, 0.3 mg",2.1 h
same,"M1 tmax, mean","[2]; human, sc, 0.3 mg",1.5 h
same,"M1 tmax, median","[2]; human, sc, 0.3 mg",1.5 h
same,"M1 tmax, min","[2]; human, sc, 0.3 mg",1.0; h
same,formation of M1,[2]; iv,0-15%
same,"relative amount of M1 formed, more with 10 mM than with 100 mM buffer",[1]; rats,at least 15%
same,"relative amount of M1 formed, less with high vs lower buffer concentration","[1]; rats, in some cases",about 50%
same,Compound 1 converted to M1,[3],80-90%
same,Cmax,"[4]; iv, 0.9 mg, M1 mean Cmax",0.1 to 0.25 ng/mL
same,half-life,"[4]; iv, M1 harmonic mean terminal half-life",~4 h
same,AUC,"[4]; sc, 0.1 mg, geometric mean",2.51 ng·h/mL
same,AUC,"[4]; sc, 0.1 mg, max",3.5 ng·h/mL
same,AUC,"[4]; sc, 0.1 mg, mean",2.6 ng·h/mL
same,AUC,"[4]; sc, 0.1 mg, min",1.71 ng·h/mL
same,Cmax,"[4]; sc, 0.1 mg, M1 Cmax, geometric mean",0.9 ng/mL
same,Cmax,"[4]; sc, 0.1 mg, M1 Cmax, max",1.28 ng/mL
same,Cmax,"[4]; sc, 0.1 mg, M1 Cmax, mean",0.93 ng/mL
same,Cmax,"[4]; sc, 0.1 mg, M1 Cmax, min",0.7 ng/mL
same,half-life,"[4]; sc, 0.1 mg, M1 t1/2, harmonic mean",1.5 h
same,half-life,"[4]; sc, 0.1 mg, M1 t1/2, max",2.1 h
same,half-life,"[4]; sc, 0.1 mg, M1 t1/2, mean",1.6 h
same,half-life,"[4]; sc, 0.1 mg, M1 t1/2, min",1 h
same,Tmax,"[4]; sc, 0.1 mg, max",2 h
same,Tmax,"[4]; sc, 0.1 mg, mean",0.8 h
same,Tmax,"[4]; sc, 0.1 mg, median",0.5 h
same,Tmax,"[4]; sc, 0.1 mg, min",0.3 h
same,AUC,"[4]; sc, 0.3 mg, geometric mean",6.71 ng·h/mL
same,AUC,"[4]; sc, 0.3 mg, max",10.2 ng·h/mL
same,AUC,"[4]; sc, 0.3 mg, mean",7.55 ng·h/mL
same,AUC,"[4]; sc, 0.3 mg, min",3.2 ng·h/mL
same,AUC,"[4]; sc, 0.3 mg, min, max (n 1)",11.3 ng·h/mL
same,Cmax,"[4]; sc, 0.3 mg, M1 Cmax, geometric mean",1.63 ng/mL
same,Cmax,"[4]; sc, 0.3 mg, M1 Cmax, max",2.93 ng/mL
same,Cmax,"[4]; sc, 0.3 mg, M1 Cmax, mean",2.01 ng/mL
same,Cmax,"[4]; sc, 0.3 mg, M1 Cmax, min",0.6 ng/mL
same,half-life,"[4]; sc, 0.3 mg, M1 harmonic mean terminal half-life",1.5 to 2 h
same,half-life,"[4]; sc, 0.3 mg, M1 t1/2, harmonic mean",1.9 h
same,half-life,"[4]; sc, 0.3 mg, M1 t1/2, max",2.4 h
same,half-life,"[4]; sc, 0.3 mg, M1 t1/2, mean",2 h
same,half-life,"[4]; sc, 0.3 mg, M1 t1/2, min",1.5 h
same,half-life,"[4]; sc, 0.3 mg, M1 t1/2, min, max (n 1)",2.1 h
same,Tmax,"[4]; sc, 0.3 mg",0.5 to 1.5 h
same,Tmax,"[4]; sc, 0.3 mg, max",1.1 h
same,Tmax,"[4]; sc, 0.3 mg, mean",0.8 h
same,Tmax,"[4]; sc, 0.3 mg, median",1 h
same,Tmax,"[4]; sc, 0.3 mg, min",0.5 h
NCCCC[C@H](NC(=O)[C@@H]1CCCN1C(=O)[C@@H]1CSSC[C@H](NC(=O)CNC(=O)CNC(=O)CN)C(=O)N[C@@H](Cc2ccc(O)cc2)C(=O)N[C@@H](Cc2ccccc2)C(=O)N[C@@H](CCC(N)=O)C(=O)N[C@@H](CC(N)=O)C(=O)N1)C(=O)NCC(N)=O [Terlipressin] (H-GGGCYFQNCPKG-NH2; disulfide 4-9),average increase in MAP between 30 min and 5 h,[5]; IV bolus 0.03 mg/kg,6.0 mmHg
same,maximum MAP increase from baseline,[5]; IV bolus 0.03 mg/kg,29.6±3.6 mmHg
same,average increase in MAP between 30 min and 5 h,[5]; IV bolus 0.09 mg/kg,5.8 mmHg
same,maximum MAP increase from baseline,[5]; IV bolus 0.09 mg/kg,29.9±6.2 mmHg
same,average increase in MAP between 30 min and 5 h,[5]; IV bolus 0.17 mg/kg,14.6 mmHg
same,maximum MAP increase from baseline,[5]; IV bolus 0.17 mg/kg,50.8±5.6 mmHg
same,average increase in MAP between 30 min and 5 h,[5]; IV bolus 0.34 mg/kg,14.7 mmHg
same,maximum MAP increase from baseline,[5]; IV bolus 0.34 mg/kg,41.2±7.5 mmHg
same,time of maximum MAP increase,"[5]; IV bolus, across groups",5 to 30 min
same,time by which Δ MAP was negligible,"[5]; IV bolus, all groups",150 min
same,"Δ MAP, mean",[6]; 0 min,0.0 mmHg
same,"Δ PP, mean",[6]; 0 min,0.0 mmHg
same,"Δ MAP, mean",[6]; 1 min,6.1 mmHg
same,"Δ PP, mean",[6]; 1 min,−1.5 mmHg
same,"Δ MAP, mean",[6]; 2 min,10.8 mmHg
same,"Δ PP, mean",[6]; 2 min,−2.1 mmHg
same,"Δ MAP, mean",[6]; 3 min,18.1 mmHg
same,"Δ PP, mean",[6]; 3 min,−2.3 mmHg
same,"Δ MAP, mean",[6]; 5 min,26.3 mmHg
same,"Δ PP, mean",[6]; 5 min,−2.4 mmHg
same,"Δ MAP, mean",[6]; 7 min,30.1 mmHg
same,"Δ PP, mean",[6]; 7 min,−2.5 mmHg
same,"Δ MAP, mean",[6]; 10 min,32.0 mmHg
same,"Δ PP, mean",[6]; 10 min,−2.4 mmHg
same,"Δ MAP, mean",[6]; 15 min,32.9 mmHg
same,"Δ PP, mean",[6]; 15 min,−2.5 mmHg
same,"Δ MAP, mean",[6]; 20 min,33.5 mmHg
same,"Δ PP, mean",[6]; 20 min,−2.6 mmHg
same,"Δ MAP, mean",[6]; 30 min,31.7 mmHg
same,"Δ PP, mean",[6]; 30 min,−2.5 mmHg
same,"Δ MAP, mean",[6]; 60 min,13.3 mmHg
same,"Δ PP, mean",[6]; 60 min,−2.8 mmHg
same,"Δ MAP, mean",[6]; 90 min,5.2 mmHg
same,"Δ PP, mean",[6]; 90 min,−0.8 mmHg
same,highest observed absolute MAP,[6]; 100 μg/kg intra-arterial,116.6±4.1 mmHg
same,maximum ΔMAP,[6]; 100 μg/kg intra-arterial,33.5±2.6 mmHg
same,maximum ΔPP,[6]; 100 μg/kg intra-arterial,−2.8±0.8 mmHg
